Article PMC11477167, “Structure–Function Relationship of a Novel MTX-like Peptide (MTX1) Isolated and Characterized from the Venom of the Scorpion Maurus palmatus” (International Journal of Molecular Sciences, 2024)
“Also recorded” adds a separate entry of the source. Bridge positions count the residues as written; N and C are the ends. Peptide text beside a SMILES is read from it.

Assays:
C57BL/6 mice = assay: Neurotoxic activity in mice by intracerebroventricular injection (LD50); type: in vivo, mouse
Experimental: 4.5. The Neurotoxic Activity of MTX1 in Mice
To assess the LD50 of the MTX1, different doses of the peptide were administered to males C57BL/6 mice (20 ± 2 g) by an intracerebroventricular injection under ether anesthesia, which is considered the most sensitive route for scorpion toxins in mammals. Each dose was suspended/diluted in 5 μL of 0.1% (w/v) BSA and tested on six mice. Symptoms of toxicity were observed and recorded over a 24 h period. The median lethal dose (LD50) corresponds to the dose required to kill half of the tested mice.

[1] = system: 125I-apamin binding site of rat brain synaptosomes (SKCa channels); assay: Competition binding with 125I-apamin on rat brain synaptosomes (SKCa channels)
Experimental: The rats were euthanized by dislocation and their brains were rapidly removed and placed on a cold plate. The brain tissue was suspended in a 10% (w/v) sucrose-HEPES buffer in a polytron homogenizer with a protease inhibitor. Synaptosomal membranes were prepared as previously described. The protein content of the membranes, determined by the […], was 0.92 µg/µL. The protein content was determined using a modified Lowry method, with assays conducted on the synaptosomal fraction P2 isolated from rat brain. MTX1 was reacted with Na [^125I] (Amersham Biosciences, Buckinghamshire, United Kingdom) in the presence of lactoperoxidase and H2O2 in 50 mM phosphate buffer at pH 7.2. The separation of free iodine was achieved by anion exchange chromatography using Dowex 1X-8 (Merck, Darmstadt, Germany). The mixture was then injected into a reverse-phase HPLC column (analytical RP-C18 Beckman, Ultrasphere, 5 μm, 4.6 × 250 mm). Solvent A consisted of 0.1% trifluoroacetic acid (v/v) in water, and solvent B consisted of 0.1% trifluoroacetic acid (v/v) in acetonitrile. The HPLC experiments were performed as previously described. Radioactivity was quantified using a Packard spectrometer (Crystal I1 multidetector system, San Francisco, CA, USA) with the native toxin eluted at 18 min. The iodination mixture yielded only two peaks (RT = 2 min and RdT = 25 min); approximately 70–85% of the radioactivity was linked to the peak (RT = 25 min), which was postulated to correspond to the mono-iod derivative.
4.10. Binding Assay for SKCa Channels
The process of iodination of apamin was executed utilizing IODO-GEN. In displacement assays, 50 μL of 0.1 nM ^125I-apamine (2000 Ci/mmol) was combined with 400 µL of synaptosome suspension (0.4 mg protein/mL). The samples were incubated with 50 µL of one of the competitor concentration series (MTX1, MTX or CHTX) in a final volume of 500 µL for 1 h at 0 °C. The incubation buffer consisted of 25 mM hydroxymethyl amino methane (Tris-HCl) (pH 7.2), 10 mM potassium chloride (KCl) and 0.1% BS. Following centrifugation for 10 min, the samples were centrifuged again and the resulting pellets were washed three times with 2 mL of the same buffer. The quantification of bound radioactivity was conducted utilizing (Packard Crystal II). The mean values of triplicate experiments are reported. Non-specific binding, characterized as less than 10% of total binding, was determined in the presence of an excess (10 nM) of unlabeled apamin.

[2] = system: anti-MTX mice polyclonal antibodies; assay: ELISA cross-antigenicity with anti-MTX serum; type: binding, mouse
Experimental: Upon retrieval of pre-immune serum via retro-orbital puncture, 30 µg of MTX1 or saline (0.9% NaCl) in complete Freund’s adjuvant was subcutaneously administered to 6-week-old mice on day 1. Subsequent booster injections of incomplete Freund’s adjuvant were administered 15 and 25 days later. On […], the mice were bled and used for ELISA experiments in 96-well microtitration plates (catalog number M5785-1CS Sigma Aldrich, MO, USA). […] The optimal dilution of the immune serum resulting in half-maximum binding of MTX to its specific antiserum was determined to be 1/100,000.
The specificity of anti-MTX against MTX1 and CHTX toxins was assessed using ELISA. One hundred microliters of 5 μg/mL of antigen (MTX1 and CHTX) in 0.1 M sodium bicarbonate buffer at pH 9.6 were adsorbed on 96-well NUNC plates for 90 min at 37 °C. […] Finally, 200 μL of 0.4 mg/mL OPD in citrate buffer (pH 5.2 containing H2O2 (0.03%) was added to each well, followed by a 5 min incubation in the dark at room temperature. The reaction was halted by adding 50 μL of 2 N sulfuric acid. The absorbance at 492 nm was measured using a spectrophotometer (Thermo-Multiskan EX, Shanghai, China). The immune serum titer corresponded to the dilution that yielded 50% of the maximum absorbance.

rat Kv1.2 = target: T1, rat Kv1.2 (Rattus norvegicus, UniProt P63142); assay: Two-electrode voltage clamp, Kv1.2 expressed in Xenopus laevis oocytes; type: cell-based
T1 construct: expressed in transfected cells; host or cells: Xenopus laevis oocytes, cRNA injection
Excerpt: (§1) 4.11. Oocyte Preparation and Electrophysiological Recordings
(§2) The xenopus was anesthetized in a bath of tricaine solution. It was then placed on its back in a dissecting tank covered with alcohol-cleaned BenchGuard paper. A horizontal slit was made in the animal’s lower abdomen by incising a piece of the underlying muscle with the skin. The ootheca were then gently pulled outwards and a portion was cut out and transferred to a sterile Erlen tube containing MBS medium, leaving the rest in place in the ovary. Finally, the incision was closed using sterile, absorbable sutures.
(§3) Xenopus laevis oocytes at stages V and VI were retrieved and prepared for cRNA injection and electrophysiological recordings. The enzymatic elimination of oocyte follicular cell layers was carried out by employing 2 mg·mL^−1 collagenase IA (Sigma, St. Louis, MO, USA) in the classical Barth’s medium containing (in mm) 88 NaCl, 1 KCl, 0.82 MgSO4, 0.33 Ca(NO3)2, 0.41 CaCl2, 2.4 NaHCO3, and 15N-2-hydroxyethylpiperazine-N′-ethanesulfonic acid (Hepes), with a pH of 7.4 (NaOH). The plasmids were digested using Xba1 (rat Kv1.2) and EcoR1 (rat Kv1.3). The resultant linearized plasmids were transcribed using either a T7 or SP6 mMessage mMachine transcription kit (Ambion, Austin, TX, USA). Subsequently, cRNAs (1 µg·µL^−1) were cryopreserved in H2O at −80 °C. Injection of cells with 50 nL of cRNA (0.2 µg·µL^−1 rat Kv1.2, or Kv1.3 channels) took place 2 days later. To promote the expression of ion channels, the cells were cultured at 16 °C in a specified nutrient oocyte medium for 2–6 days prior to conducting current recordings. Oocyte currents were captured at 20–22 °C using conventional two-microelectrode techniques with a voltage-clamp amplifier (GeneClamp 500; Axon Instruments, Foster City, CA, USA) linked to a 16-bit AD/DA converter (Digidata 1200A, Axon Instruments). […] Voltage pulses were administered every 15 s, maintaining a holding potential of −80 mV. Current data were sampled at 10 kHz, subjected to low-pass filtration at 2 kHz through an eight-pole Bessel filter and archived on a computer for subsequent assessment. The extracellular solution for recording contained (in mM) 88 NaCl, 10 KCl, 2 MgCl2, 0.5 CaCl2, 0.5 niflumic acid, 5 Hepes, and 0.1% bovine serum albumin, with a pH of 7.4 (NaOH). The P/4 protocol was implemented for online subtraction of the leak and capacitive currents. Any residual capacitive artifacts were eliminated for visualization purposes. The peptide solutions of MTX1 were perfused into the recording chamber at a flow rate of 2 mL/min using a ValveBank4 apparatus (Automate Scientific Inc., St Berkeley, CA 94710, USA). Data analysis was conducted using the software patch clamp 6.0.3 (Axon Instruments, Foster City, CA, USA). The outcomes are presented as the mean ± SEM.

[3] = system: 125I-CHTX binding site of rat brain synaptosomes (Kv channels); assay: Competition binding with 125I-CHTX on rat brain synaptosomes; settings: conclusion in words
rat Kv1.3 = target: T2, rat Kv1.3 (Rattus norvegicus, UniProt P15384); assay: Two-electrode voltage clamp, Kv1.3 expressed in Xenopus laevis oocytes; type: cell-based
T2 construct: expressed in transfected cells; host or cells: Xenopus laevis oocytes, cRNA injection
Excerpt: as §1, §2, §3

glioblastoma = settings: subject of clinical trials; ref [9],[12],[13]; cited from earlier work
Excerpt: (§4) For instance, several research projects have focused on the use of scorpion neurotoxins as potential new treatments against cancers.

[4] = system: glioma and melanoma cells; settings: glioma (charybdotoxin) and melanoma (iberiotoxin); ref [12],[14]; cited from earlier work
Excerpt: as §4

[5] = system: human lung adenocarcinoma cells; settings: by blocking Kv1.2 and Kv1.3; ref [15],[16]; cited from earlier work
Excerpt: as §4

[6] = comparison in words (Kv1.2 and SKCa channels together)
[7] = 2.5 nM, extracellular application
[8] = kinetics of inhibition, after washing
[9] = oocytes, one value printed for Kv1.2 and Kv1.3

T2 sequence (P15384 whole entry): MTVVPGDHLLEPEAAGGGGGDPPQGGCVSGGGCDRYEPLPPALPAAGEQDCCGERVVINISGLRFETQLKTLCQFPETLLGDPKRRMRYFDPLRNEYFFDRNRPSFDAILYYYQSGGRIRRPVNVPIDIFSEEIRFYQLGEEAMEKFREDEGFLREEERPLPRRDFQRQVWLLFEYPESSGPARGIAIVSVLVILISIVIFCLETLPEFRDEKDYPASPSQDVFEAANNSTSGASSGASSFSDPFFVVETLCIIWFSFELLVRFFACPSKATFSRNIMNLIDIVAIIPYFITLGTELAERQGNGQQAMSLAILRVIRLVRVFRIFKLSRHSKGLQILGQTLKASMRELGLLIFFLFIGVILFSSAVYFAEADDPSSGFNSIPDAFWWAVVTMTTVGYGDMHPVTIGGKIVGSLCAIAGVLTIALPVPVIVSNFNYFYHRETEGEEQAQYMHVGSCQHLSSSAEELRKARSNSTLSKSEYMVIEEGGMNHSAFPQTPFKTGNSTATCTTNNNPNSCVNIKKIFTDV
T1 sequence (P63142 whole entry): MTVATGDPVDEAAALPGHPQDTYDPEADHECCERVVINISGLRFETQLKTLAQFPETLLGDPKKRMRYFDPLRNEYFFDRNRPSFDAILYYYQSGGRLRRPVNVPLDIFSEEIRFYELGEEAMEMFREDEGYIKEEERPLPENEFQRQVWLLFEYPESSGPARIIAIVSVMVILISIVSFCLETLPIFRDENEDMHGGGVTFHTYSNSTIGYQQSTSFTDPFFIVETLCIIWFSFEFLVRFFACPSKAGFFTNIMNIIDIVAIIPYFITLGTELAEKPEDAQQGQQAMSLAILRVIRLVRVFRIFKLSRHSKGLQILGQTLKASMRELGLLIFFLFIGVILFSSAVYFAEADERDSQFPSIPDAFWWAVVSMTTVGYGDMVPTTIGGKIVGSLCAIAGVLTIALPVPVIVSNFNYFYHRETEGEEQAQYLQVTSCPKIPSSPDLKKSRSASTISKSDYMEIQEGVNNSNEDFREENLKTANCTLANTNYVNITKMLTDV

CSCC[C@@H]1NC(=O)[C@@H]2CSSC[C@H](NC(=O)[C@H](CO)NC(=O)[C@@H](N)C(C)C)C(=O)N[C@@H]([C@@H](C)O)C(=O)NCC(=O)N[C@@H](CO)C(=O)N[C@@H](CCCCN)C(=O)N[C@@H](CCC(=O)O)C(=O)N[C@@H](CSSC[C@@H](C(=O)N[C@@H](CCCCN)C(=O)N[C@H]3CSSC[C@@H](C(N)=O)NC(=O)CNC(=O)[C@H](Cc4ccc(O)cc4)NC3=O)NC(=O)[C@H](CCCCN)NC(=O)[C@H](CCCNC(=N)N)NC(=O)[C@H](CC(N)=O)NC1=O)C(=O)N[C@@H](Cc1ccc(O)cc1)C(=O)N[C@@H](C)C(=O)N1CCC[C@H]1C(=O)N[C@H]1CSSC[C@H](NC(=O)CNC(=O)[C@H]([C@@H](C)O)NC(=O)[C@H](CCC(N)=O)NC(=O)[C@H](CCCCN)NC(=O)[C@H](CCCCN)NC1=O)C(=O)N1CCC[C@H]1C(=O)N[C@@H](CC(N)=O)C(=O)N[C@@H](C)C(=O)N[C@@H](CCCCN)C(=O)N2 [MTX1] (H-VSCTGSKECYAPCKKQTGCPNAKCMNRKCKCYGC-NH2; disulfide 3-24, 9-29, 13-19, 31-34; N-terminus and C-terminus assumed)
Toxicity in mice (qualitative) (C57BL/6 mice; i.c.v. injection): highly toxic
Toxicity in mice relative to MTX (C57BL/6 mice; i.c.v., LD50 comparison with MTX): approximately eight times more lethal than MTX; also recorded: eight times more effectively than MTX; also recorded: eight times more toxicity than MTX
Dose with maximum fatality rate (C57BL/6 mice; i.c.v., doses 4, 6, 8, 10, 15 and 20 ng, six mice each): 20 ng
Time to death (C57BL/6 mice; i.c.v., doses 4–20 ng): 10 min
LD50 (C57BL/6 mice; i.c.v., male C57BL/6 mice (20 ± 2 g), six mice per dose, 4–20 ng, observed 24 h): 10 ng per mouse
LD50 (C57BL/6 mice; i.c.v., mice): 0.01 μg/mouse
Potency on SKCa channels relative to MTX [1, 6]: higher binding affinity; also recorded: significantly more effective at inhibiting the Kv1.2 currents and SKCa channels
Affinity relative to MTX, apamin-sensitive SKCa channels ([1]; comparison of IC50 of MTX1 with IC50 of MTX (5 nM)): almost three times higher than that of MTX
IC50 ([1]; rat brain synaptosomes (0.4 mg protein/mL), 50 μL of 0.1 nM 125I-apamin, 1 h, 0 °C, pH 7.2, mean of triplicate, read-out: IC50, inhibition of 125I-apamin binding): 1.7 nM
Recognition of apamin receptor sites ([1]; rat brain synaptosomes, conclusion in words): recognizes apamin receptor sites with a high affinity and binds partially with these sites
Recognition by anti-MTX antibodies ([2]; different dilutions of anti-MTX mice polyclonal antibodies): well recognized by anti-MTX antibodies; also recorded: distinctly recognized
IC50 of anti-MTX serum binding relative to MTX ([2]; plates coated with 5 µg/mL antigen): identical
IC50 on Kv1.2 relative to MTX (rat Kv1.2; 0.26 nM of MTX1 against 0.8 nM of MTX): three times lower than that of MTX
Reduction of outward Kv1.2 currents over voltage (rat Kv1.2; [7]): markedly reduced outward Kv1.2 and Kv1.3 currents at all test voltages examined
inhibition at 0.0025 µM (rat Kv1.2; 2.5 nM, oocytes, read-out: Inhibition of Kv1.2 currents): 90%
Potency on Kv1.2 relative to MTX (rat Kv1.2; [6]): higher binding affinity; also recorded: more active than MTX on the Kv1.2 channel; also recorded: significantly more effective at inhibiting the Kv1.2 currents and SKCa channels
Reversibility on washing, Kv1.2 (rat Kv1.2; [8]): partial recovery after the washing
Hill coefficient, Kv1.2 concentration-response (rat Kv1.2; [9]): 1.1 ± 0.1
Interaction with the CHTX-binding site [3]: partially interacted with the CHTX-binding site
Reduction of outward Kv1.3 currents over voltage (rat Kv1.3; [7]): markedly reduced outward Kv1.2 and Kv1.3 currents at all test voltages examined
Block of Kv1.3 relative to MTX (rat Kv1.3; comparison in words): comparable effect to MTX; also recorded: in a comparable manner to MTX
Reversibility on washing, Kv1.3 (rat Kv1.3; [8]): partial recovery after the washing
Hill coefficient, Kv1.3 concentration-response (rat Kv1.3; [9]): 1.1 ± 0.1

chlorotoxin
Effect on glioblastoma cells (glioblastoma): specifically targets the invasion and migration of glioblastoma cells

iberiotoxin (QFTDVDCSVSKECWSVCKDLFGVDRGKCMGKKCRCYQ; UniProt P24663 1-37, looked up)
Inhibition of tumor cell proliferation and migration [4]: able to inhibit glioma and melanoma cell proliferation and migration

margatoxin (TIINVKCTSPKQCLPPCKAQFGQSAGAKCMNGKCKCYPH; UniProt P40755 1-39, looked up)
Inhibition of proliferation [5]: inhibited the proliferation of human lung adenocarcinoma cells
